Measured values taken from patent publication US20240335382A1, “NANO- OR MICRO-EMULSION COMPOSITIONS AND METHODS OF USE THEREOF” (Nutraceutical Wellness, Inc., priority 2021, published 2024).

System: skin of human subjects
Experiment: Acute primary skin patch test, single 48-hour application
Format: in vivo
Conditions: positive control, 55 subjects completing study
Description: To determine the primary (acute) irritation potential of a test material after a single application to the skin of human subjects for 48 hours.
Test materials to be tested under occlusive conditions were placed on an 8-millimeter aluminum Finn Chamber® (Epitest Ltd. Oy, Tuusula, Finland) supported on Scanpor® Tape (Norgesplaster A/S, Kristiansand, Norway) or an 8-millimeter filter paper coated aluminum Finn Chamber® AQUA supported on a thin flexible transparent polyurethane rectangular film coated on one side with a medical grade acrylic adhesive, consistent with adhesive used in state-of-the-art hypoallergenic surgical tapes or a 7 mm IQ-ULTRA® closed cell system which is made of additive-free polyethylene plastic foam with a filter paper incorporated (It is supplied in units of 10 chambers on a hypoallergenic non woven adhesive tape; the width of the tape is 52 mm and the length is 118 mm) or other equivalents.
Test materials to be tested under semi-occlusive conditions were placed on a test strip with a Rayon/Polypropylene pad or on a 7.5 mm filter paper disc affixed to a strip of hypoallergenic tape (Johnson & Johnson 1 inch First Aid Cloth Tape). […]
Trained skin grading laboratory personnel removed the patch and evaluated the test sites.
In the event of an adverse reaction, the area of erythema and edema is measured. […]

CCCCCCCCCCCCOS(=O)(=O)[O-].[Na+] [2.0% Sodium Lauryl Sulfate Solution, Sodium Lauryl Sulfate]
subjects with a Grade 1 reaction: 16 subjects
